According to the supplement of paper PMC10307832:

Legend:
Experiment in all cases: relative viability (nuclei count vs DMSO), 5 days (fraction); higher = more cells survive
[1] = compound: C1=CC=C(C(=C1)C2=CC=C(C=C2)C3=CSC4=C3C(=C(C(=O)N4)C#N)O)O + Cc1nc(NC(=O)N2CCC[C@H]2C(N)=O)sc1-c1ccnc(C(C)(C)C(F)(F)F)c1 [Alpelisib] (partner 2 µM)
Summary of the method: (§1)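 The day after seeding in 1536-well plates, lung cancer cell lines were treated by pin tool with a single drug, or with a fixed anchor-drug dose together with five library-drug doses (not always all listed) in √10 steps. After 5 days, a combined fix-and-stain solution (final 0.05% Triton X-100, 1% formaldehyde, 1 ug/ml Hoechst) was added. Nuclei counted on 4× images gave relative viability as treated counts over vehicle counts, reported as the median of duplicate plates.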

[2] = compound: CC1=CN2C(=O)C=C(N=C2C(=C1)C(C)NC3=CC=CC=C3)N4CCOCC4 [TGX 221] + C[C@@H](Oc1cc(-c2cnn(C3CCNCC3)c2)cnc1N)c1c(Cl)ccc(F)c1Cl [Crizotinib] (partner 1 µM)
Summary of the method: as §1

[3] = compound: CC1=CN2C(=O)C=C(N=C2C(=C1)C(C)NC3=CC=CC=C3)N4CCOCC4 [TGX 221] + Cc1nc(NC(=O)N2CCC[C@H]2C(N)=O)sc1-c1ccnc(C(C)(C)C(F)(F)F)c1 [Alpelisib] (partner 2 µM)
Summary of the method: as §1

[4] = compound: O=C(CCCCCCNC(=O)c1cnc(N(c2ccccc2)c2ccccc2)nc1)NO [Ricolinostat] + Cc1nc(NC(=O)N2CCC[C@H]2C(N)=O)sc1-c1ccnc(C(C)(C)C(F)(F)F)c1 [Alpelisib] (partner 2 µM)
Summary of the method: as §1

Cell Line	relative viability ([1]; first compound 0.08 µM)	relative viability ([1]; first compound 0.253 µM)	relative viability ([1]; first compound 0.8 µM)	relative viability ([1]; first compound 2.53 µM)	relative viability ([1]; first compound 8 µM)	relative viability ([2]; first compound 0.08 µM)	relative viability ([2]; first compound 0.253 µM)	relative viability ([2]; first compound 0.8 µM)	relative viability ([2]; first compound 2.53 µM)	relative viability ([2]; first compound 8 µM)	relative viability ([3]; first compound 0.08 µM)	relative viability ([3]; first compound 0.253 µM)	relative viability ([3]; first compound 0.8 µM)	relative viability ([3]; first compound 2.53 µM)	relative viability ([3]; first compound 8 µM)	relative viability ([4]; first compound 0.08 µM)	relative viability ([4]; first compound 0.253 µM)	relative viability ([4]; first compound 0.8 µM)	relative viability ([4]; first compound 2.53 µM)
NCI-H1993	0.684	0.624	0.69	0.594	0.655	0.778	0.815	0.951	0.807	0.774	0.64	0.57	0.723	0.616	0.651	0.619	0.76	0.711	0.73
COR-L 105	0.859	1.04	0.93	0.802	0.953	0.883	0.748	0.967	0.728	0.519	1.02	0.838	0.697	0.609	0.361	0.698	0.98	0.934	1.25
NCI-H596	0.397	0.541	0.489	0.497	0.447	0.993	1.04	1	0.823	0.82	0.423	0.419	0.445	0.403	0.387	0.429	0.492	0.446	0.463
LK-2			0.906	1	1.06	0.252	0.212	0.235	0.213	0.269	1.02	1.05	0.959	0.665	1		0.995	1.07	1.62
NCI-H650	1.1	1.36	0.961	1.11	1.22	0.729	0.655	0.624	0.689	0.534	1.23	1.02	1.13	0.912	0.791		1.18	0.922	0.877
NCI-H520	0.602	0.767	1.03	0.87	0.861	0.532	0.724	0.68	0.572	0.398	0.696	0.45	0.42	0.243	0.254		0.765	0.954	0.852
ABC-1	1.09	1.08	1.08	0.878	1.01	0.946	0.809	1.25	1.01	1.26	1.03	0.858	0.996	0.99	0.838	0.955	0.933	1.11	0.648
NCI-H322M	0.814	0.901	0.958	0.835	0.703	0.945	1.03	0.95	0.823	0.911	0.8	0.64	0.64	0.687	0.505		0.829	0.795	0.715
HCC-78	0.286	0.485	0.296	0.29	0.349	0.385	0.334		0.294	0.274	0.299	0.23		0.2	0.175		0.32	0.291	0.192
NCI-H1563	0.783	1.03	0.991	0.832	0.998	0.846	0.832	0.766	0.736	0.666	0.834	0.777	0.658	0.607	0.594	0.916	0.994	0.862	0.857
Calu-6	1.15	0.993	1.11	1.01	1.09	0.718	0.698	0.806	0.768	0.693	0.986	0.8	0.948	0.917	0.883	0.91	0.947	1.01	0.878
NCI-H2228	0.585	0.927	0.712	0.803	0.816	0.399	0.288	0.354	0.327	0.384	0.693	0.468	0.551	0.523	0.403	0.555	0.984	0.722	0.791
NCI-H2009	1.11	1.09	1.14	1.11	1.09	0.964	0.978	1	1.03	0.773	1.16	1.07	1.1	0.907	0.733	1.13	1.11	1.12	0.923
LXF-289	1.02	0.969	1.06	1.05	0.965	0.813	0.832	0.808	0.774	0.82	0.948	0.979	0.947	0.898	0.898	0.961	1	1.06	1.01
NCI-H1975	0.508	0.694	0.542	0.721	0.485	0.985	0.878	0.996	0.935	0.803	0.585	0.454	0.465	0.446	0.362	0.582	0.556		0.492
NCI-H2347	0.959	1.09	0.968	1.04	0.964	0.67	0.666	0.635	0.701	0.542	0.994	0.911	0.955	0.605	0.756	0.889	1.01	0.987	0.963
RERF-LC-KJ	0.769	0.935	0.961	0.782	0.69	0.736	0.832	0.752	0.781	0.795	0.66	0.713	0.603	0.644	0.637	0.668	0.972	0.754	0.766
BEN	0.828	1.11	0.918	1.27	0.756	0.931	0.641	0.821	0.795	0.721	0.982	0.942	0.899	0.899	0.88	0.951	0.901	0.978	0.655
NCI-H358	0.708	0.862	0.788	0.973	0.763	0.556	0.535	0.661	0.633	0.395	0.723	0.75	0.828	0.85	0.726	0.733	0.997	0.952	1.05
NCI-H1944	0.806	0.952	0.888	0.856	0.864	1.07	1.03	1.02	1.09	0.863	0.77	0.713	0.554	0.488	0.422	0.649	0.783	0.74	0.58
201T	1.08	1.03	1.01	1.01	1.08		1.07	1.01	0.993	0.985		0.942	0.943	0.872	0.827	0.905	0.946	1.03	0.887
NCI-H647	0.559	1	1.11	1.19	1.34	1.12	0.947	1.06	1.04	0.553	0.867	0.862	0.65	0.624	0.459	1.16	1.09	1.15	0.937
NCI-H441		0.773		0.75	0.816	0.732	0.82	0.657	0.62	0.697	0.889	0.723	0.717	0.768	0.848	0.597	0.596	0.803	0.539
PC-3 [JPC-3]	1.17	1.05	1.06	1.12	1.01	0.988	0.991	1.04	0.912	0.994	1.01	0.978	1	0.929	0.894	0.941	0.996	0.948	0.909
NCI-H2126	0.784	0.809	0.748	0.77	0.731	0.992	1.04	0.963	0.975	0.966	0.708	0.652	0.611	0.58	0.617	0.578	0.707	0.716	0.628
HCC-15	0.976	1.03	0.943	1.01	0.819	0.821	0.783	0.852	0.772	0.811	0.893	0.788	0.958	0.831	0.776	0.753	0.875	0.834	0.894
NCI-H2085	0.872	1.08	1	0.973	0.879	0.804	0.878	0.915	0.806	0.505	0.94	0.689	0.57	0.424	0.406		1.04	0.861	0.915
LOU-NH91	0.678	0.789	0.721	0.663	0.67	0.796	0.75	0.746	0.735	0.655	0.69	0.706	0.682	0.697	0.575		0.735	0.709	0.699
A549	0.733	1.14	0.908	0.707	0.604	0.677	0.743	0.773	0.751	0.529	0.63	0.52	0.542	0.377	0.28	0.537	0.805	0.663	0.631
